Counter-ions that a name gives are not always drawn. Like-named read-outs stand apart in the source and are kept apart here.
Molecular target: T1, HIV protease (Human immunodeficiency virus type 1 group M subtype B, UniProt P04585)
T1 construct: A third viral enzyme known as protease then cleaves the polyproteins
Assay: Enzymatic Assay for Determining the Inhibition Constant (Ki) of Synthetic Compounds Targeting the HIV Protease (fluorometric FRET assay)
Type: biochemical
In short: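 Fluorometric FRET assay following protease cleavage of an EDANS/DABCYL-labelled substrate. Initial velocities without (Vo) and with inhibitor (Vi) measured; Ki derived from the Henderson equation using inhibitor and substrate concentrations and Km.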

[1] = Table 1, compounds of formula I, read-out: Ki (anti-protease activity)
[2] = Anti-protease activity of Ne-amino acid substituted L-lysine derivatives and analogs of formula I, read-out: Ki

CC(C)CN([C@H](CO)CCCCNC(=O)[C@H](Cc1ccccc1)NC(=O)N1CCOCC1)S(=O)(=O)c1ccc(N)cc1 [Example 180, (2S,2′S) 2-N-(4-Aminobenzenesulfonyl)-2-N-isobutyl-6-N-[N′α-(4-morpholinecarbonyl)-S-phenylalanyl]-2,6-diaminohexanol]
Ki: 2.4 nM

CC(C)CN(CC(=O)NCCCC[C@@H](CO)N(CC(C)C)S(=O)(=O)c1ccc(N)cc1)c1ccccc1 [Example 181, (2S) 2-N-(4-Aminobenzenesulfonyl)-2-N-isobutyl-6-N-(N′α-isobutyl-N′α-phenylglycyl)-2,6-diaminohexanol]
Ki [1]: 16 nM

CC(C)CN([C@H](CO)CCCCNC(=O)CN(Cc1ccccc1)c1ccccc1)S(=O)(=O)c1ccc(N)cc1 [Example 182, (2S) 2-N-(4-Aminobenzenesulfonyl)-2-N-isobutyl-6-N-(N′α-benzyl-N′α-phenylglycyl)-2,6-diaminohexanol]
Ki: 2.4 nM

Cc1ccc(S(=O)(=O)N(CC(C)C)[C@H](CO)CCCCNC(=O)[C@@H](N)Cc2c[nH]c3ccccc23)cc1 [Example 183, (2S,2′S) 2-N-Isobutyl-2-N-(4-methylbenzenesulfonyl)-6-N-(S-tryptophanyl)-2,6-diaminohexanol Trifluoroacetic Acid Salt]
Ki [1]: 4.4 nM

CC(C)CN([C@H](CO)CCCCNC(=O)[C@H](Cc1c[nH]c2ccccc12)NC(=O)C(C)C)S(=O)(=O)c1ccc(N)cc1 [Example 184, (2S,2′S) 2-N-(4-Aminobenzenesulfonyl)-2-N-isobutyl-6-N-(N′α-isobutyryl-S-tryptophanyl)-2,6-diaminohexanol]
Ki: 1.6 nM

CC(C)CN([C@H](CO)CCCCNC(=O)[C@H](Cc1c[nH]c2ccccc12)NC(=O)CC(C)(C)C)S(=O)(=O)c1ccc(N)cc1 [Example 185, (2S,2′S) 2-N-(4-Aminobenzenesulfonyl)-2-N-isobutyl-6-N-(N′α-tert-butylacetyl-S-tryptophanyl)-2,6-diaminohexanol]
Ki: 3.1 nM

CC(C)CN(C(CO)CCCCNC(=O)C(Cc1c[nH]c2ccccc12)NC(=O)c1ccccc1)S(=O)(=O)c1ccc(N)cc1 [Example 186, (2S,2′S) 2-N-(4-Aminobenzenesulfonyl)-2-N-isobutyl-6-N-(N′α-benzoyl-S-tryptophanyl)-2,6-diaminohexanol]
Ki: 1.7 nM

CC(C)CN([C@H](CO)CCCCNC(=O)[C@H](Cc1c[nH]c2ccccc12)NS(=O)(=O)c1ccc(N)cc1)S(=O)(=O)c1ccc(N)cc1 [Example 187, (2S,2′S) 2-N-(4-Aminobenzenesulfonyl)-2-N-isobutyl-6-N-[N′α-(4-aminobenzenesulfonyl)-S-tryptophanyl]-2,6-diaminohexanol]
Ki: 0.2 nM

Cc1ccc(S(=O)(=O)N(CC(C)C)[C@H](CO)CCCCNC(=O)[C@H](CC#N)NS(=O)(=O)c2ccccc2)cc1 [Example 188, (2S,2′S) 2-N-Isobutyl-2-N-(4-methylbenzenesulfonyl)-6-N-(N′α-benzenesulfonyl-S-cyanoalanyl)-2,6-diaminohexanol]
Ki: 79 nM

Cc1ccc(S(=O)(=O)N(CC(C)C)[C@@H](CCCCNC(=O)[C@H](Cc2c[nH]c3ccccc23)NS(=O)(=O)c2ccccc2)C(N)=O)cc1 [Example 189, Nα-Isobutyl-Nα-(4-methylbenzenesulfonyl)-Nε-(N′α-benzenesulfonyl-L-tryptophanyl)-L-lysine Amide]
Ki: 1.9 nM

COC(=O)N[C@@H](Cc1c[nH]c2ccccc12)C(=O)NCCCC[C@@H](CO)N(CC(C)C)S(=O)(=O)c1ccc(C)cc1 [Example 190, (2S,2′S) 2-N-Isobutyl-2-N-(4-methylbenzenesulfonyl)-6-N-(N′α-methoxycarbonyl-S-tryptophanyl)-2,6-diaminohexanol]
Ki: 2.2 nM

Cc1ccc(S(=O)(=O)N(CC(C)C)[C@H](CO)CCCCNC(=O)[C@H](Cc2c[nH]c3ccccc23)NC(=O)c2ccccc2)cc1 [Example 191, (2S,2′S) 2-N-Isobutyl-2-N-(4-methylbenzenesulfonyl)-6-N-(N′α-benzoyl-S-tryptophanyl)-2,6-diaminohexanol]
Ki: 3.8 nM

Cc1ccc(S(=O)(=O)N(CC(C)C)[C@H](CO)CCCCNC(=O)[C@H](Cc2c[nH]c3ccccc23)NC(=O)OCC(C)C)cc1 [Example 192, (2S,2′S) 2-N-Isobutyl-2-N-(4-methylbenzenesulfonyl)-6-N-(N′α-isobutoxycarbonyl-S-tryptophanyl)-2,6-diaminohexanol]
Ki: 4.5 nM

CC(C)COC(=O)N[C@@H](Cc1c[nH]c2ccccc12)C(=O)NCCCC[C@@H](CO)N(CC(C)C)S(=O)(=O)c1ccc(N)cc1 [Example 193, (2S,2′S) 2-N-(4-Aminobenzenesulfonyl)-2-N-isobutyl-6-N-(N′α-isobutoxycarbonyl-S-tryptophanyl)-2,6-diaminohexanol]
Ki: 4.1 nM

CC(C)CN([C@H](CO)CCCCNC(=O)[C@H](Cc1ccccc1)NS(=O)(=O)c1ccc([N+](=O)[O-])cc1)S(=O)(=O)c1ccc(N)cc1 [Example 194, (2S,2′S) 2-N-(4-Aminobenzenesulfonyl)-2-N-isobutyl-6-N-[N′α-(4-nitrobenzenesulfonyl)-S-phenylalanyl]-2,6-diaminohexanol]
Ki: 85 nM

CC(C)CN([C@H](CO)CCCCNC(=O)[C@H](Cc1ccccc1)NS(=O)(=O)c1ccc(N)cc1)S(=O)(=O)c1ccc(N)cc1 [Example 195, (2S,2′S) 2-N-(4-Aminobenzenesulfonyl)-2-N-isobutyl-6-N-[N′α-(4-aminobenzenesulfonyl)-S-phenylalanyl]-2,6-diaminohexanol]
Ki: 20 nM

COc1ccc(NC(=O)N[C@@H](Cc2ccccc2)C(=O)NCCCC[C@@H](C(=O)O)N(CC(C)C)S(=O)(=O)c2ccc(C)cc2)cc1 [Example 196, Nα-Isobutyl-Nα-(4-methylbenzenesulfonyl)-Nε-[N′α-(4-methoxyanilinecarbonyl)-L-phenylalanyl]-L-lysine]
Ki: 0.5 nM

Cc1ccc(S(=O)(=O)N(CC(C)C)[C@@H](CCCCNC(=O)[C@H](Cc2ccccc2)NC(=O)N2CCCC2)C(=O)O)cc1 [Example 197, Nα-Isobutyl-Nα-(4-methylbenzenesulfonyl)-Nε-(N′α-pyrrolidinecarbonyl-L-phenylalanyl)-L-lysine]
Ki: 1.7 nM

CNC(=O)N[C@@H](Cc1ccccc1)C(=O)NCCCC[C@@H](C(=O)O)N(CC(C)C)S(=O)(=O)c1ccc(C)cc1 [Example 198, Nα-Isobutyl-Nα-(4-methylbenzenesulfonyl)-Nε-(N′α-methylaminocarbonyl-L-phenylalanyl)-L-lysine]
Ki: 1.1 nM

Cc1ccc(S(=O)(=O)N(CC(C)C)[C@@H](CCCCNC(=O)[C@H](Cc2ccccc2)NC(=O)NCCO)C(=O)O)cc1 [Example 199, Nα-Isobutyl-Nα-(4-methylbenzenesulfonyl)-Nε-(N′α-ethanolaminocarbonyl-L-phenylalanyl)-L-lysine]
Ki: 2.2 nM

Cc1ccc(S(=O)(=O)N[C@@H](Cc2ccccc2)C(=O)NCCCC[C@@H](C(=O)O)N(CC(C)C)S(=O)(=O)c2ccccc2)cc1 [Example 200, Nα-Benzenesulfonyl-Nα-isobutyl-Nε-[N′α-(4-methylbenzenesulfonyl)-L-phenylalanyl]-L-lysine]
Ki: 31 nM

Cc1ccc(S(=O)(=O)N[C@@H](Cc2ccccc2)C(=O)NCCCC[C@@H](C(=O)O)N(CC(C)C)S(=O)(=O)c2ccc(N)cc2)cc1 [Example 201, Nα-(4-Aminobenzenesulfonyl)-Nα-isobutyl-Nε-[N′α-(4-methylbenzenesulfonyl)-L-phenylalanyl]-L-lysine]
Ki: 4.1 nM

(2S,2′S) 2-N-Isobutyl-2-N-(4-methylbenzenesulfonyl)-6-N-(N′α-tert-butoxycarbonyl-S-4-thiazolylalanyl)-2,6-diaminohexanol [Example 137]
Ki [1]: 96 nM

Nα-Isobutyl-Nα-(4-methylbenzenesulfonyl)-Nε-(N′α-benzylglycyl)-L-lysine [Example 109]
Ki [1]: > 300 nM

Nα-Isobutyl-Nα-(4-methylbenzenesulfonyl)-Nε-[N′α-(4-bromobenzenesulfonyl)-L-phenylalanyl]-L-lysine [Example 20]
Ki [2]: 19 nM

Nα-Isobutyl-Nα-(4-methylbenzenesulfonyl)-Nε-[N′α-(4-methylbenzenesulfonyl)-L-phenylalanyl-N-cyanoamidine]-L-lysine [Example 98]
Ki [2]: 5.1 nM
